Target: T1, Recombinant human mPGES-1 (Homo sapiens, UniProt O14684)
T1 construct: made in house; host or cells: CHO cells (crude microsomal fractions)
T1 sequence (O14684 1-152): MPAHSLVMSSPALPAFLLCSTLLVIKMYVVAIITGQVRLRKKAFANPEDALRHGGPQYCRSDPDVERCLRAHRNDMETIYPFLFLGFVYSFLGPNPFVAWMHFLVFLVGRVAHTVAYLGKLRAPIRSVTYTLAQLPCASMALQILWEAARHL
Assay: In-vitro screening of mPGES-1 inhibitors (inhibition of PGE2 formation from PGH2, HTRF detection)
Format: biochemical
Conditions: mPGES-1 enzyme; for inhibition at 1 µM: 1 μM test compound, read-out: Percentage inhibition at 1 μM; for inhibition at 1 µM / inhibition at 10 µM: crude microsomal fractions; for inhibition at 10 µM: 10 μM test compound, read-out: Percentage inhibition at 10 μM; for IC50: class symbols
Procedure, shortened: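 PGH2-to-PGE2 isomerization run for 1 min with 15 μM PGH2 after 10 min compound preincubation with microsomal enzyme (40–60 μg/mL) and 2.5 mM GSH, pH buffer 0.1 M potassium phosphate with EDTA. Stannous chloride quench, HTRF PGE2 readout, IC50 fitted against uninhibited reaction.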

| Compound | inhibition at 1 µM [%] | inhibition at 10 µM [%] | IC50 [nM] |
| --- | --- | --- | --- |
| CC(C)(C)C(=O)NCc1cc(-c2nn(-c3ccc(C(F)(F)F)cc3)c(=O)[nH]2)c(Cl)cc1F [Example-114, N-(4-Chloro-2-fluoro-5-(1-(4-(trifluoromethyl)phenyl)-4,5-dihydro-S-oxo-1H-1,2,4-triazol-3-yl)benzyl)pivalamide] | 99.1 | 98.4 | < 50 |
| CC(C)(CO)C(=O)NCc1ccc(Cl)c(-c2nn(-c3ccc(C(F)(F)F)cc3)c(=O)[nH]2)c1 [Example-115, N-(4-Chloro-3-(1-(4-(trifluoromethyl)phenyl)-4,5-dihydro-5-oxo-1H-1,2,4-triazol-3-yl)benzyl)-3-hydroxy-2,2-dimethylpropanamide] | 96.5 | 98.2 | < 50 |
| O=C(NCc1ccc(Cl)c(-c2nn(-c3ccc(Cl)c(F)c3)c(=O)[nH]2)c1)C(F)(F)F [Example-116, N-(4-chloro-3-(1-(4-chloro-3-fluorophenyl)-4,5-dihydro-5-oxo-1H-1,2,4-triazol-3-yl)benzyl)-2,2,2-trifluoroacetamide] | 98 | 95.5 | < 50 |
| CC1(C)CCC(n2nc(-c3cc(CNC(=O)C(F)(F)F)ccc3Cl)[nH]c2=O)CC1 [Example-117, N-(4-chloro-3-(4,5-dihydro-1-(4,4-dimethylcyclohexyl)-5-oxo-1H-1,2,4-triazol-3-yl)benzyl)-2,2,2-trifluoroacetamide] | 67.9 | 95 |  |
| CC1(C)CCC(n2nc(-c3cc(CNC(=O)C(C)(C)C)ccc3Cl)[nH]c2=O)CC1 [Example-118, N-(4-Chloro-3-(4,5-dihydro-1-(4,4-dimethylcyclohexyl)-5-oxo-1H-1,2,4-triazol-3-yl)benzyl)pivalamide] | 76.2 | 87.8 | > 100 |
| O=C(NCc1cc(-c2nn(-c3ccc(C(F)(F)F)cc3)c(=O)[nH]2)c(Cl)cc1F)[C@H]1CCCO1 [Example-119, (R)—N-(4-chloro-2-fluoro-5-(5-oxo-1-(4-(trifluoromethyl)phenyl)-4,5-dihydro-1H-1,2,4-triazol-3-yl)benzyl)tetrahydrofuran-2-carboxamide] | 88.7 | 94.3 | < 50 |
| CC(C)(C)n1nc(-c2cc(CNC(=O)C(F)(F)F)ccc2Cl)[nH]c1=O [Example-120, N-(3-(1-tert-butyl-4,5-dihydro-5-oxo-1H-1,2,4-triazol-3-yl)-4-chlorobenzyl)-2,2,2-trifluoroacetamide] | 11.4 | 46 |  |
| CC(C)(C)C(=O)NCc1ccc(Cl)c(-c2nn(C(C)(C)C)c(=O)[nH]2)c1 [Example-121, N-(3-(1-tert-Butyl-4,5-dihydro-5-oxo-1H-1,2,4-triazol-3-yl)-4-chlorobenzyl)pivalamide] | 16.3 | 72.5 |  |
| COCC(C)(C)C(=O)NCc1ccc(Cl)c(-c2nn(-c3ccc(C(F)(F)F)cc3)c(=O)[nH]2)c1 [Example-122, N-(4-Chloro-3-(1-(4-(trifluoromethyl)phenyl)-4,5-dihydro-5-oxo-1H-1,2,4-triazol-3-yl)benzyl)-3-methoxy-2,2-dimethylpropanamide] | 92.2 | 93.5 | < 50 |
| CC(C)(C)C(=O)NCc1ccc(Cl)c(-c2nn(-c3ccc(Cl)c(F)c3)c(=O)[nH]2)c1 [Example-123, N-(4-Chloro-3-(1-(4-chloro-3-fluorophenyl)-4,5-dihydro-5-oxo-1H-1,2,4-triazol-3-yl)benzyl)pivalamide] | 93.8 | 100 | < 50 |
| CC1(C)CCC(n2nc(-c3cc(CNC(=O)C(F)(F)F)c(F)cc3Cl)[nH]c2=O)CC1 [Example-124, N-(4-chloro-2-fluoro-5-(4,5-dihydro-1-(4,4-dimethylcyclohexyl)-5-oxo-1H-1,2,4-triazol-3-yl)benzyl)-2,2,2-trifluoroacetamide] | 28 | 89 |  |
| CC1(C)CCC(n2nc(-c3cc(CNC(=O)C(C)(C)C)c(F)cc3Cl)[nH]c2=O)CC1 [Example-125, N-(4-Chloro-2-fluoro-5-(4,5-dihydro-1-(4,4-dimethylcyclohexyl)-5-oxo-1H-1,2,4-triazol-3-yl)benzyl)pivalamide] | 79.9 | 95 |  |
| CC(C)(C)C(=O)NCc1cc(-c2nn(-c3ccc(Cl)cc3)c(=O)[nH]2)c(Cl)cc1F [Example-126, N-(4-Chloro-5-(1-(4-chlorophenyl)-4,5-dihydro-5-oxo-1H-1,2,4-triazol-3-yl)-2-fluorobenzyl)pivalamide] | 100 | 99.3 | < 50 |
| COc1cc(Cl)c(-c2nn(-c3ccc(C(F)(F)F)cc3)c(=O)[nH]2)cc1CNC(=O)C(C)(C)C [Example-127, N-(4-Chloro-5-(1-(4-(trifluoromethyl)phenyl)-4,5-dihydro-5-oxo-1H-1,2,4-triazol-3-yl)-2-methoxybenzyl)pivalamide] | 32.4 | 58.5 |  |
| CC(C)(C)C(=O)NCc1cc(-c2nn(-c3ccc(F)c(C(F)(F)F)c3)c(=O)[nH]2)c(Cl)cc1F [Example-128, N-(4-Chloro-2-fluoro-5-(1-(4-fluoro-3-(trifluoromethyl)phenyl)-4,5-dihydro-5-oxo-1H-1,2,4-triazol-3-yl)benzyl)pivalamide] | 91.8 | 89.3 | < 50 |
| CC(C)(C)C(=O)NCc1cc(-c2nn(-c3ccc(C(F)(F)F)nc3)c(=O)[nH]2)c(Cl)cc1F [Example-129, N-(4-Chloro-2-fluoro-5-(1-(6-(trifluoromethyl)pyridin-3-yl)-4,5-dihydro-5-oxo-1H-1,2,4-triazol-3-yl)benzyl)pivalamide] | 93.5 | 92.1 | < 50 |
| CC(C)(C)C(=O)NCc1cc(-n2nc(-c3ccc(C#CC4CC4)cc3)[nH]c2=O)c(Cl)cc1Cl [Example-130, N-(2,4-Dichloro-5-(3-(4-(2-cyclopropylethynyl)phenyl)-4,5-dihydro-5-oxo-1,2,4-triazol-1-yl)benzyl)pivalamide] | 96.6 | 97.8 | 50 to 100 |
| CC(C)(C)C(=O)NCc1cc(-c2nn(-c3ccc(F)c(Cl)c3)c(=O)[nH]2)c(Cl)cc1F [Example-131, N-(4-Chloro-5-(1-(3-chloro-4-fluorophenyl)-4,5-dihydro-5-oxo-1H-1,2,4-triazol-3-yl)-2-fluorobenzyl)pivalamide] | 100 | 99.2 | < 50 |
| O=C(NCc1cc(-c2nn(-c3ccc(Cl)cc3)c(=O)[nH]2)c(Cl)cc1F)c1ccccc1F [Example-132, N-(4-Chloro-5-(1-(4-chlorophenyl)-4,5-dihydro-5-oxo-1H-1,2,4-triazol-3-yl)-2-fluorobenzyl)-2-fluorobenzamide] | 91.8 | 89.8 | < 50 |
| CC(C)C(=O)NCc1cc(-c2nn(-c3ccc(C(F)(F)F)cc3)c(=O)[nH]2)c(Cl)cc1F [Example-133, N-(4-Chloro-2-fluoro-5-(1-(4-(trifluoromethyl)phenyl)-4,5-dihydro-5-oxo-1H-1,2,4-triazol-3-yl)benzyl)isobutyramide] | 98 | 97.9 | < 50 |

Reference: patent US10821100B2, “Triazolone compounds as mPGES-1 inhibitors” (Glenmark Pharmaceuticals S.A., priority 2012, dated 2020)
